Laboratory results reported in ChEMBL document CHEMBL5352426, “Synthesis and anti-tumor activity of nitrogen-containing derivatives of the natural product diphyllin” (Eur J Med Chem, 2022).
pIC50: −log10 of the molar value. Values after ≈ are worked out from the molar mass of the structure shown. One block for each compound: values may come before it.

Tests used:
[1] = Antiproliferative activity against human L02 cells assessed as inhibition of cell proliferation at 1 uM incubated for 72 hrs by SRB assay relative to control; format: toxicity, cell-based
MIA PaCa-2 [2] = assay: Antiproliferative activity against human MIA PaCa-2 cells assessed as inhibition of cell proliferation at 1 uM incubated for 72 hrs by SRB assay relative to control; format: functional
CFPAC-1 [3] = assay: Antiproliferative activity against human CFPAC-1 cells assessed as inhibition of cell proliferation at 1 uM incubated for 72 hrs by SRB assay relative to control; format: functional
PaTu 8988t [4] = assay: Antiproliferative activity against human PaTu 8988t cells assessed as inhibition of cell proliferation at 1 uM incubated for 72 hrs by SRB assay relative to control; format: functional
Panc02 [5] = assay: Antiproliferative activity against mouse Panc02 cells assessed as inhibition of cell proliferation at 1 uM incubated for 72 hrs by SRB assay relative to control; format: functional
[6] = Antiproliferative activity against human L02 cells assessed as inhibition of cell proliferation incubated for 72 hrs by SRB assay; format: toxicity, cell-based
MIA PaCa-2 [7] = assay: Antiproliferative activity against human MIA PaCa-2 cells assessed as inhibition of cell proliferation incubated for 72 hrs by SRB assay; format: functional, cell-based; settings: MIA PaCa-2, 72 h
CFPAC-1 [8] = assay: Antiproliferative activity against human CFPAC-1 cells assessed as inhibition of cell proliferation incubated for 72 hrs by SRB assay; format: functional, cell-based; settings: CFPAC-1, 72 h
PaTu 8988t [9] = assay: Antiproliferative activity against human PaTu 8988t cells assessed as inhibition of cell proliferation incubated for 72 hrs by SRB assay; format: functional, cell-based
Panc02 [10] = assay: Antiproliferative activity against mouse Panc02 cells assessed as inhibition of cell proliferation incubated for 72 hrs by SRB assay; format: functional, cell-based; settings: Panc02, 72 h
[11] = Metabolic stability in human liver microsome assessed as half life; format: ADME; settings: liver microsomes
[12] = Metabolic stability in human liver microsome assessed as intrinsic clearance; format: ADME; settings: liver microsomes, read-out: CLH
[13] = Metabolic stability in human liver microsome assessed as hepatic clearance; format: ADME; settings: microsomes
[14] = Metabolic stability in mouse liver microsome assessed as half life; format: ADME; settings: liver microsomes
[15] = Metabolic stability in mouse liver microsome assessed as intrinsic clearance; format: ADME; settings: liver microsomes, read-out: CLH
[16] = Metabolic stability in mouse liver microsome assessed as hepatic clearance; format: ADME; settings: microsomes
[17] = Aqueous solubility of the compound at 1 to 2 mg measured after 24 hrs by HPLC-MS analysis; format: physicochemical; settings: aqueous (not further specified), dose 1-2 mg
CFPAC-1 [18] = assay: Induction of cell cycle arrest in human CFPAC-1 cells assessed as accumulation at G1 phase at 10 nM incubated for 24 hrs by flow cytometry (reference value: 57.6 %); format: functional
CFPAC-1 [19] = assay: Induction of cell cycle arrest in human CFPAC-1 cells assessed as accumulation at S phase at 10 nM incubated for 24 hrs by flow cytometry (reference value: 28.5 %); format: functional
CFPAC-1 [20] = assay: Induction of cell cycle arrest in human CFPAC-1 cells assessed as accumulation at G2 phase at 10 nM incubated for 24 hrs by flow cytometry (reference value: 11 %); format: functional
CFPAC-1 [21] = assay: Induction of cell cycle arrest in human CFPAC-1 cells assessed as accumulation at G1 phase at 100 nM incubated for 24 hrs by flow cytometry (reference value: 57.6 %); format: functional
CFPAC-1 [22] = assay: Induction of cell cycle arrest in human CFPAC-1 cells assessed as accumulation at S phase at 100 nM incubated for 24 hrs by flow cytometry (reference value: 28.5 %); format: functional
CFPAC-1 [23] = assay: Induction of cell cycle arrest in human CFPAC-1 cells assessed as accumulation at G2 phase at 100 nM incubated for 24 hrs by flow cytometry (reference value: 11 %); format: functional
CFPAC-1 [24] = assay: Induction of cell cycle arrest in human CFPAC-1 cells assessed as accumulation at G1 phase at 1000 nM incubated for 24 hrs by flow cytometry (reference value: 57.6 %); format: functional
CFPAC-1 [25] = assay: Induction of cell cycle arrest in human CFPAC-1 cells assessed as accumulation at S phase at 1000 nM incubated for 24 hrs by flow cytometry (reference value: 28.5 %); format: functional
CFPAC-1 [26] = assay: Induction of cell cycle arrest in human CFPAC-1 cells assessed as accumulation at G2 phase at 1000 nM incubated for 24 hrs by flow cytometry (reference value: 11 %); format: functional
CFPAC-1 [27] = assay: Induction of apoptosis in human CFPAC-1 cells assessed as viable cells at 1 uM incubated for 24 hrs by annexin V-FITC/PI staining based flow cytometry (reference value: 92.9 %); format: functional; settings: read-out: Activity
CFPAC-1 [28] = assay: Induction of apoptosis in human CFPAC-1 cells assessed as early apoptotic cells at 1 uM incubated for 24 hrs by annexin V-FITC/PI staining based flow cytometry (reference value: 2.93 %); format: functional
CFPAC-1 [29] = assay: Induction of apoptosis in human CFPAC-1 cells assessed as late apoptotic cells at 1 uM incubated for 24 hrs by annexin V-FITC/PI staining based flow cytometry (reference value: 3.88 %); format: functional
CFPAC-1 [30] = assay: Induction of apoptosis in human CFPAC-1 cells assessed as necrotic cells at 1 uM incubated for 24 hrs by annexin V-FITC/PI staining based flow cytometry (reference value: 0.27 %); format: functional
CFPAC-1 [31] = assay: Induction of apoptosis in human CFPAC-1 cells assessed as viable cells at 10 uM incubated for 24 hrs by annexin V-FITC/PI staining based flow cytometry (reference value: 92.9 %); format: functional; settings: read-out: Activity
CFPAC-1 [32] = assay: Induction of apoptosis in human CFPAC-1 cells assessed as early apoptotic cells at 10 uM incubated for 24 hrs by annexin V-FITC/PI staining based flow cytometry (reference value: 2.93 %); format: functional
CFPAC-1 [33] = assay: Induction of apoptosis in human CFPAC-1 cells assessed as late apoptotic cells at 10 uM incubated for 24 hrs by annexin V-FITC/PI staining based flow cytometry (reference value: 3.88 %); format: functional
CFPAC-1 [34] = assay: Induction of apoptosis in human CFPAC-1 cells assessed as necrotic cells at 10 uM incubated for 24 hrs by annexin V-FITC/PI staining based flow cytometry (reference value: 0.27 %); format: functional
Panc02 [35] = assay: Antitumor activity against […] Panc02 cells xenografted in C57BL/6 mouse assessed as tumor growth inhibition at 10 mg/kg, ip administered every two days for 20 days by electronic caliper method relative to control; format: functional; settings: Panc02, 480 h, time 20 day, read-out: TGI
[36] = Toxicity in C57BL/6 mouse xenografted with […] cells assessed as drug tolerance at 10 mg/kg, ip administered every two days for 20 days; format: organism-based; settings: in vivo, 480 h, time 20 day
[37] = Toxicity in C57BL/6 mouse xenografted with […] cells assessed as body weight loss at 10 mg/kg, ip administered every two days for 20 days; format: organism-based; settings: in vivo, 480 h, time 20 day

pIC50 (MIA PaCa-2 [7]): 7.96
pIC50 (Panc02 [10]): 7.72
half-life [11]: 88.7 min
microsomal CLint [12]: 15.6 µL/min/mg
CLH [13]: 9.6 mL/min/kg
half-life [14]: 28.5 min
microsomal CLint [15]: 48.7 µL/min/mg
CLH [16]: 61.3 mL/min/kg
solubility at 24 h [17]: 0.028 µg/mL (≈ 0.0738 µM)
Compound: COc1cc2c(N)c3c(c(-c4ccc5c(c4)OCO5)c2cc1OC)C(=O)OC3
inhibition at 72 h, 1 µM [1]: 34.4%
inhibition at 1 µM (MIA PaCa-2 [2]): 91%
inhibition at 1 µM (CFPAC-1 [3]): 78.6%
inhibition at 1 µM (PaTu 8988t [4]): 89.9%
inhibition at 1 µM (Panc02 [5]): 90%
IC50 at 72 h [6]: 487 nM
pIC50 (CFPAC-1 [8]): 8.52
pIC50 (PaTu 8988t [9]): 7.43
Activity (CFPAC-1 [18]): 74.3%
Activity (CFPAC-1 [19]): 15.6%
Activity (CFPAC-1 [20]): 8%
Activity (CFPAC-1 [21]): 80.9%
Activity (CFPAC-1 [22]): 12.7%
Activity (CFPAC-1 [23]): 3.61%
Activity (CFPAC-1 [24]): 83.8%
Activity (CFPAC-1 [25]): 10.3%
Activity (CFPAC-1 [26]): 3.66%
viability at 1 µM (CFPAC-1 [27]): 84.8%
Activity (CFPAC-1 [28]): 2.91%
Activity (CFPAC-1 [29]): 11.9%
Activity (CFPAC-1 [30]): 0.4%
viability at 10 µM (CFPAC-1 [31]): 86.1%
Activity (CFPAC-1 [32]): 2.21%
Activity (CFPAC-1 [33]): 11%
Activity (CFPAC-1 [34]): 0.69%
inhibition in vivo at 10 mg/kg (Panc02 [35]): 44.7%
Activity [36]: Non-Toxic
Activity [37]: Non-Toxic

pIC50 (MIA PaCa-2 [7]): 7.40
pIC50 (Panc02 [10]): 7.92
half-life [11]: < 5 min
microsomal CLint [12]: > 277 µL/min/mg
CLH [13]: > 19.4 mL/min/kg
half-life [14]: < 5 min
microsomal CLint [15]: > 277 µL/min/mg
CLH [16]: > 83.2 mL/min/kg
Compound: COc1cc2c(OCCCc3cn([C@H]4O[C@@H](C)[C@H](OC(C)=O)[C@@H](OC(C)=O)[C@H]4OC(C)=O)nn3)c3c(c(-c4ccc5c(c4)OCO5)c2cc1OC)C(=O)OC3
inhibition at 72 h, 1 µM [1]: 38.3%
inhibition at 1 µM (MIA PaCa-2 [2]): 93.6%
inhibition at 1 µM (CFPAC-1 [3]): 75.7%
inhibition at 1 µM (PaTu 8988t [4]): 93.9%
inhibition at 1 µM (Panc02 [5]): 86.7%
IC50 at 72 h [6]: 494 nM
pIC50 (CFPAC-1 [8]): 8.15
pIC50 (PaTu 8988t [9]): 7.62
